Assay [1] concerns J774A.1 macrophages. The assay is described as follows: ATP-induced intracellular ROS (CM-H2DCFDA) in LPS-primed J774A.1 macrophages. It counts as cell-based. To be noted: 1 μg/ml LPS 5 h, 50 μM Antcin H 0.5 h, 5 mM ATP 0-60 min. The protocol: (§1) FIG. 6A: J774A.1 macrophages were treated with or without 1 μg/ml LPS for 5 h, followed by treated with or without Antcin H for 0.5 h. Cells were then activated by 5 mM ATP for 0.5 h; FIG. 6B: J774A.1 macrophages were treated with or without 1 μg/ml LPS for 5 h, followed by treated with or without 50 μM Antcin H for 0.5 h. Cells were then activated by 5 mM ATP for 0-60 min.
(§2) STHdh^Q7 and STHdh^Q109 cells were treated with 5 or 10 μM Antcin H or vehicle (DMSO) in the presence of 10 μM intracellular ROS indicator fluorescent probe CM-H2DCFDA (Molecular Probes, Inc., Eugene, Oregon, USA) for 1 h. Intracellular ROS (Reactive Oxygen Species) levels were measured by detecting the fluorescence intensity (Excitation/Emission: 488 nm/510 nm) using a fluorescence plate reader (Fluoroskan Ascent; Thermo Electron Corporation, Woburn, MA, USA). J774A.1 macrophages were treated with or without 1 μg/ml LPS for 5 h, followed by treated with or without 50 μM Antcin H for 0.5 h. […] The levels of intracellular ROS were measured by CM-H2DCFDA staining and detected by a fluorescence plate reader.
In addition, ROS is one of the crucial elements for NLRP3 inflammasome activation (Tschopp and Schroder, 2010). […] The levels of intracellular ROS were measured by CM-H2DCFDA staining and detected at an excitation wavelength of 488 nm and an emission wavelength of 510 nm on a […]. […]

The test system of assay [2] is BV2 microglia. The assay is described as follows: iNOS and NLRP3 Western blotting in LPS and ATP activated BV2 microglia. Type of assay: cell-based. To be noted: 1 μg/ml LPS 5 h, 1 or 5 μM Antcin H 0.5 h, 1 mM ATP 24 h. Here is the method:
(§3) BV2 microglia were treated with or without 1 μg/ml LPS for 5 h, followed by treated with or without 1 or 5 μM Antcin H for 0.5 h. Cells were then activated by 1 mM ATP for 24 h. The IL-1β levels in the supernatants were measured by ELISA, and the levels of iNOS and NLRP3 in the cell lysates were measured by Western blotting. J774A.1 macrophages were treated with or without 1 μg/ml LPS for 5 h, followed by treated with or without Antcin H for 0.5 h. Cells were then activated by 5 mM ATP for 0.5 h. The IL-1β levels in the supernatants were measured by ELISA.
(§4) Microglia are macrophage-like immune cells of the central nervous system. […] (Subhramanyam et al., 2019). In addition, overexpressed IL-1β, the end-product of the NLRP3 inflammasome, plays important roles in the development of many diseases including neurodegenerative diseases (Siew et al., 2019). NLRP3 inflammasome composed of NLRP3, ASC and caspase-1 and controls the maturation and release of IL-1β. NLRP3 inflammasome can be activated by medical relevant stimuli such as ATP from damage tissues and amyloid-β of Alzheimer's disease (Guo et al., 2015). […] BV2 microglia were treated with or without 1 μg/ml LPS for 5 h, followed by treated with or without 1 or 5 μM Antcin H for 0.5 h. Cells were then activated by 1 mM ATP for 24 h. The data are presented as the mean±SEM from three independent experiments. […]
(Immunoblotting shows a protein as a band on a membrane.)

Assay [3] deals with NLRP3. The assay is described as follows: NLRP3 immunofluorescence staining in striatum of R6/2 mice. Type of assay: in vivo. To be noted: 10 mg/kg oral gavage daily, age 7 to 12 weeks, vs vehicle-treated R6/2 mice. The protocol: (§5) FIG. 4A: The numbers of activated microglia in the striatum were identified by lba1 staining (green color), and the numbers of NLRP3 positive cells in the striatum were identified by NLRP3 staining (red color). Nuclei were stained with Hoechst (blue color).
(§6) The method was according to the previous report. In brief, brain sections were incubated overnight with anti-lba-I polyclonal antibody (1:500), anti-NeuN polyclonal antibody (1:500), anti-NLRP3 monoclonal antibody (1:200) or anti-EM48 monoclonal antibody (1:500) in PBS containing 5% normal goat serum at 4° C. and then incubated with the corresponding secondary antibody for 2 h at room temperature. Nuclei were stained with Hoechst 33258. Slides were mounted and analyzed with a laser confocal microscope.
(§7) HD commonly associated with inflammation in nervous system and activated microglia. […] FIG. 4 show Antcin H reduced NLRP3 expression in microglia of R6/2 mice. R6/2 mice or WT mice were treated with AH (10 mg/kg of body weight) or vehicle by oral gavage daily starting from the age of 7 weeks to the age of 12 weeks. WT-Vehicle: n=6; WT-AH: n=6; R6/2-vehicle: n=6; R6/2-AH: n=6. The data are presented as the mean±SEM. Label “a” in chart means p<0.05, between WT and R6/2 mice. Label “b” in chart means p<0.05 vs. vehicle-treated R6/2 mice.

Assay [4] has as its system R6/2 mice. The assay is described as follows: Neuronal death in R6/2 mice brain (NeuN immunofluorescence staining, Western blotting). Type of assay: in vivo. To be noted: 10 mg/kg oral gavage daily. The protocol: (§8) FIG. 3A: The numbers of neurons (identified by the expression of NeuN; green color) and the level of mutant huntingtin (red color) in the striatum of the mice were analyzed by confocal microscope. Nuclei were stained with Hoechst (blue color).
as §6
The present example further investigates the effect of Antcin H in the neuronal death of R6/2 mice brains by immunofluorescence staining. […] R6/2 mice or WT mice were treated with AH (10 mg/kg of body weight) or vehicle by oral gavage daily starting from the age of 7 weeks to the age of 12 weeks. WT-Vehicle: n=6; WT-AH: n=6; R6/2-vehicle: n=6; R6/2-AH: n=6. The data are presented as the mean±SEM. Label “a” in chart means p<0.05, between WT and R6/2 mice. Label “b” in chart means p<0.05 vs. vehicle-treated R6/2 mice.

The subject of assay [5] is STHdh^Q109 cells. The assay is described as follows: Cell viability analysis (CCK-8 assay) in a cell model of HD. The following applies: 24 h, vs vehicle-treated cells. Type of assay: cell-based, mice. An excerpt: (§9) Conditionally immortalized wild-type STHdh^Q7 striatal neuronal progenitor cells expressing endogenous normal htt (referred to as wild-type striatal cells), and homozygous mutant STHdh^Q109 striatal neuronal progenitor cells from homozygous STHdh^Q109 knock-in mice expressing mutant htt with 109 glutamines (referred to as mutant striatal cells). STHdh^Q7 and STHdh^Q109 cells were generous gifts from Dr. Elena Cattaneo and Marta Valenza (Department of pharmacological sciences and center for stem cell research, University of Milano, Italy). These cells were maintained in an incubation chamber at 33° C. in Dulbecco's modified Eagle's medium supplemented with 10% fetal bovine serum.
STHdh^Q7 and STHdh^Q109 cells were treated with 5 or 10 μM Antcin H or vehicle (DMSO) for 24 h. STHdh^Q7 and STHdh^Q109 cells viability was quantified by the CCK-8 assay. The survival rate of the indicated cells was normalized to those survival rate of vehicle-treated STHdh^Q7 cells.
To investigate the neuroprotective potential of Antcin H in CNS disease, the present example used striatal cell line as an in vitro model of Huntington's disease. STHdh^Q109 cells carry the polyQ-expanded mouse gene Htt, which encodes 109 CAG repeats in the Htt gene. Compared with STHdh^Q109 cells, the control cell line (STHdh^Q7) only carry 7 copies of the CAG repeat. […]
(In general: Formazan colour is commonly taken as a measure of viable cells.)

The subject of assay [6] is R6/2 mice. The assay is described as follows: Disease progression of R6/2 transgenic mouse model of HD (body weight, rotarod, survival, clasping). Type of assay: in vivo. To be noted: 10 mg/kg oral gavage daily. Here is the method: R6/2 mice or wild-type mice were treated with Antcin H (10 mg/kg of body weight) or vehicle by oral gavage daily starting from the age of 7 weeks to the age of 12 weeks. Mice were tested on a Rotarod apparatus three times a week. Motor coordination was assessed using a rotarod apparatus assay (UGO BASILE, Comerio, Italy) at a constant speed (12 rpm) over a period of 2 min. The body weight and the lifespan were monitored weekly.
To investigate the therapeutic potential of Antcin H in the pathogenesis of Huntington's disease, R6/2 mice were used as an animal model of HD. R6/2 mice or wild-type mice were treated with Antcin H (10 mg/kg of body weight) or vehicle by oral gavage daily starting from the age of 7 weeks to the age of 12 weeks. […] WT-Vehicle: n=10; WT-AH: n=10; R6/2-vehicle: n=8; R6/2-AH: n=10. The data are presented as the mean±SEM. Label “a” in chart means p<0.05, between WT and R6/2 mice. Label “b” in chart means p<0.05 vs. R6/2-vehicle.

The test system of assay [7] is NLRP3 inflammasome in BV2 microglia. The assay is described as follows: IL-1β ELISA in LPS-primed, ATP-activated BV2 microglia. Type of assay: cell-based. To be noted: 1 μg/ml LPS 5 h, 1 or 5 μM Antcin H 0.5 h, 1 mM ATP 24 h. Here is the method: as §3, §4
Assay [8] relates to STHdh^Q109 cells. The assay is described as follows: Intracellular ROS analysis (CM-H2DCFDA) in a cell model of HD. It counts as cell-based, mice. To be noted: 5 or 10 μM Antcin H, H2DCFDA staining.
From the text: as §9
as §2, with “reader. […]” for “reader.”

The test system of assay [9] is activated microglia. The assay is described as follows: lba-1 immunofluorescence staining for activated microglia in striatum of R6/2 mice. The following applies: 10 mg/kg oral gavage daily, age 7 to 12 weeks, vs vehicle-treated R6/2 mice. It counts as in vivo. The protocol:
as §5, §6, §7

In assay [10] the test system is mutant huntingtin (mHtt). The assay is described as follows: mHtt aggregation in striatum of R6/2 mice (confocal microscope, filter retardation assay). The following applies: 10 mg/kg oral gavage daily, age 7 to 12 weeks, confocal intensity and filter retardation assay. Type of assay: in vivo. The protocol:
as §8
Brain tissues will be suspended and homogenized in ice-cold RIPA buffer (50 mM Tris-HCl, 0.25% sodium deoxycholate, 1% Triton X-100, 150 mM NaCl, 1 mM phenylmethylsulfonyl fluoride, 1 mM Na3VO4, 0.5 mg/mL aprotinin, 0.1 mM leupeptin, and 4 mM pepstatin), mixed with 2% SDS, and applied to OE66 membrane filters ([…]; Whatman Schleicher and Schuell, Middlesex, UK) through a slot-blot manifold (Bio-Rad, Irvine, CA, USA). The blots will be blocked with 5% skim milk in PBS and incubated overnight with an anti-EM48 antibody (1:500; Millipore Bioscience Research Reagents, Temecula, CA, USA) at 4° C., followed by incubation with the corresponding secondary antibody for 1 h at RT. The immunoreactive bands will be detected by ECL (Pierce, Rockford, IL, USA) and recorded using Kodak XAR-5 film.
The method was according to the previous report. […] Slides were mounted and analyzed with a laser confocal microscope. […]

For assay [11], the system named is NLRP3 inflammasome in J774A.1 macrophages. The assay is described as follows: IL-1β ELISA in LPS-primed, ATP-activated J774A.1 macrophages. Type of assay: cell-based. The following applies: 1 μg/ml LPS 5 h, Antcin H 0.5 h, 5 mM ATP 0.5 h. Here is the method:
as §1, §3

The mark [12] stands for this setting: age 7 to 12 weeks, vs vehicle-treated R6/2 mice.

For `C=C(CCC(=C)[C@H]1CCC2C3=C(C(=O)[C@H](O)[C@@]21C)[C@@]1(C)CC[C@@H](O)[C@@H](C)C1CC3=O)C(C)C(=O)O` (some centres unmarked) [Antcin H], in assay [1], the “ATP-induced ROS production” value is reported as “significantly reduced ATP-induced ROS production”. Besides, in assay [2], the “expression level of NLRP3, Western blotting” value is reported as “reduced the expression levels” and the “expression level of inducible nitric oxide synthase (iNOS), Western blotting” value is listed as “reduced the expression levels”. In addition, the “number of NLRP3 positive cells in striatum” value in assay [3] was “significantly reduced the number of NLRP3 positive cells”. Besides, the “neuronal cells number in the brain (NeuN, confocal microscope)” value in assay [4] (setting [12]) was “significant increased”. For the same compound, the “NeuN protein expression in the brain (Western blotting)” value in assay [4] (brain lysates at age of 12 weeks) was “increasing expression of NeuN protein”. Further, the “cell survival ratio (CCK-8 assay)” value in assay [5] (5 μM Antcin H) is “higher survival ratio then vehicle-treated cells”. Also, the “cell survival ratio (CCK-8 assay)” value in assay [5] (10 μM Antcin H) is “higher survival ratio then vehicle-treated cells”. Also, in assay [6] (age 7 to 12 weeks, 12 rpm, 2 min), the “rotarod performance (latency to fall)” value is “increased latency to fall”. Also, the body weight result in assay [6] (setting [12]) is recorded as “higher weekly weight gain”. This compound gave a survival rate in assay [6] (at 12 weeks of age) of 100%. In assay [6] (at 12 weeks of age, vs vehicle-treated R6/2 mice), the clasping score result is recorded as “lower clasping score”. The “ATP-induced IL-1β expression (IL-1β levels in the supernatants, ELISA)” value in assay [7] was “reduced ATP-induced IL-1β expression”. The “intracellular ROS levels” value in [8] is given as “significantly reduced the intracellular ROS levels”. For the same compound, the “number of lba-1 positive cells in striatum” value in assay [9] is recorded as “decreased”. Besides, the “mutant huntingtin aggregation in the striatum” value in assay [10] is “reduced the mutant huntingtin aggregation”. Further, in assay [11], the “ATP-induced IL-1β secretion (IL-1β levels in the supernatants, ELISA)” value is “inhibited by Antcin H (FIG. 6A) in a dose-dependent manner”.

Values taken from patent publication US20230364112A1, “Use of Antcin H and Its Derivatives for Treating Central Nervous System Diseases” (ALPS BIOTECH CO., LTD., priority 2020, published 2023).
